Test results: patent US20220211694A1, “QUINOLINE DERIVATIVES FOR TREATMENT OF HEAD AND NECK CANCER” (CHIA TAI TIANQING PHARMACEUTICAL GROUP CO., LTD., priority 2019, published 2022)
Structures can show the parent of a compound that is named as a salt.

How the values were obtained:
head and neck cancer = assay: Clinical study of anlotinib with intensity modulated radiotherapy in previously untreated head and neck cancer; type: in vivo, human; conditions: patients with head and neck cancer; anlotinib 10 mg/day combined with radiotherapy
Method: Previously untreated patients with pathologically confirmed head and neck cancer, specifically including ones with nasopharyngeal carcinoma, tonsil cancer, floor of mouth cancer, oral cancer, laryngeal cancer and hypopharyngeal cancer, were all received intensity modulated radiotherapy after administration of anlotinib. The administration regimens are detailed below. Anlotinib: administered about one week before radiotherapy, 10 mg/day for a three-cycle treatment, consecutively two-week treatment and then one-week interruption, and whether the medicine was administered continuously was determined according to the change in tumors after radiotherapy. The efficacy evaluation observation indexes include 3-year overall survival (OS), […] (DFS), 3-year distant metastasis rate and local control rate. Patient, pathologically diagnosed with tonsil cancer, starting taking anlotinib hydrochloride capsules on Oct. 10, 2018 once daily, orally before breakfast at a dose of 10 mg each time, with consecutively two-week treatment and then one-week interruption; starting receiving radiation therapy on Oct. 15, 2018. Patient, pathologically diagnosed with nasopharyngeal carcinoma, starting taking anlotinib hydrochloride capsules on Nov. […]

[1] = tested on: head and neck adenocarcinoma; assay: Clinical study of anlotinib hydrochloride capsules in recurrent/metastatic head and neck adenocarcinomas; type: in vivo, human; conditions: patients with head and neck adenocarcinoma; 12 mg once daily orally, d1-14 of each 21-day cycle
[2] = tested on: human oral squamous cell carcinoma scc4 cell line; assay: MTT cell growth inhibition, scc4 cell line; type: cell-based; conditions: MTT method, in vitro
Method: (§1) The test drugs were dissolved in dimethyl sulfoxide to prepare a 100 mmol/L stock solution, which was stored at −20° C. for later use. When in use, the stock solution was diluted with a DMEM serum culture medium to a desired concentration.
(§2) The human oral squamous cell carcinoma scc4 cell line, the human oral squamous cell carcinoma CAL-27 cell line and the human oral squamous cell carcinoma HSC-4 cell line were separately cultured in a DMEM complete culture medium containing 10% fetal bovine serum and 0.1 g/L streptomycin and penicillin (the final concentration is 100 U·mL^−1), and the mixtures were incubated in an incubator at 37° C./5% CO2. When the cell confluence reached about 85%, the cells were mixed and digested using 0.02% EDTA and 0.25% trypsin, and then the cells were collected, centrifuged at 1000 r/min, and subcultured.
(§3) The IC50 value can be measured by a conventional method in the art (e.g., conventional MTT method), or can be measured by the following method (MTT method). […]
(§4) Half maximal inhibitory concentration IC50 was calculated according to inhibition rates at all concentrations using GraphPad Prism 5 software.

[3] = tested on: human oral squamous cell carcinoma CAL-27 cell line; assay: MTT cell growth inhibition, CAL-27 cell line; type: cell-based; conditions: MTT method, in vitro
Method: as §1, §2, §3, §4

[4] = tested on: human oral squamous cell carcinoma HSC-4 cell line; assay: MTT cell growth inhibition, HSC-4 cell line; type: cell-based; conditions: MTT method, in vitro
Method: as §1, §2, §3, §4

[5] = tested on: human laryngeal squamous cell carcinoma Hep-2 cell line; assay: MTT cell growth inhibition, Hep-2 cell line; type: cell-based; conditions: MTT method, in vitro
Method: as §1
(§5) The human laryngeal squamous cell carcinoma Hep-2 cell line and the human laryngeal carcinoma TU212 cell line were separately cultured in a DMEM complete culture medium containing 10% fetal bovine serum and 0.1 g/L streptomycin and penicillin (the final concentration is 100 U·mL^−1), and the mixtures were incubated in an incubator at 37° C./5% CO2. When the cell fusion reached about 85%, the cells were mixed and digested using 0.02% EDTA and 0.25% trypsin, and then the cells were collected, centrifuged at 1000 r/min, and subcultured.
as §3, §4

[6] = tested on: human laryngeal carcinoma TU212 cell line; assay: MTT cell growth inhibition, TU212 cell line; type: cell-based; conditions: MTT method, in vitro
Method: as §1, §5, §3, §4

Row | SMILES | clinical benefits (head and neck cancer) | clinical benefits [1] | effect on the proliferation of the human oral squamous cell carcinoma cells [2] | effect on the proliferation of the human oral squamous cell carcinoma cells [3] | effect on the proliferation of the human oral squamous cell carcinoma cells [4] | effect on the proliferation of the human laryngeal squamous cell carcinoma cells [5] | effect on the proliferation of the human laryngeal carcinoma cells [6]
1 | COc1cc2c(Oc3ccc4[nH]c(C)cc4c3F)ccnc2cc1OCC1(N)CC1 [anlotinib, 1-[[[4-(4-fluoro-2-methyl-1H-indol-5-yl)oxy-6-methoxyquinolin-7-yl]oxy]methyl]cyclopropylamine] | had clinical benefits | had clinical benefits |  |  |  |  | 
2 | COc1cc2c(Oc3ccc4[nH]c(C)cc4c3F)ccnc2cc1OCC1(N)CC1 [dihydrochloride of the compound I] |  |  | clear inhibitory effect | clear inhibitory effect | clear inhibitory effect | clear inhibitory effect | clear inhibitory effect
